Test results taken from ChEMBL document CHEMBL1671659, “In vitro and in vivo properties of dihydrophthalazine antifolates, a novel family of antibacterial drugs” (Antimicrob Agents Chemother, 2009).
pIC50: −log10 of the molar value. Converted amounts (≈) assume the structure as drawn. The source made the active and inactive calls. The calls are words filed in the database; no cut-off is given here.

Tests used:
Staphylococcus aureus [1] = assay: Antibacterial activity against methicillin, vancomycin, trimethoprim-sensitive Staphylococcus aureus ATCC 29213 harboring dfrB gene; type: functional
Staphylococcus aureus [2] = assay: Antibacterial activity against vancomycin, trimethoprim-sensitive and methicillin-resistant Staphylococcus aureus ATCC 43300 harboring dfrB gene; type: functional
Staphylococcus aureus [3] = assay: Antibacterial activity against vancomycin, trimethoprim, methicillin-resistant Staphylococcus aureus VRS1 harboring dfrA and dfrB genes; type: functional
[4] = tested on: Staphylococcus epidermidis; assay: Antibacterial activity against methicillin, vancomycin, trimethoprim-sensitive Staphylococcus epidermidis ATCC 14990 harboring dfrC gene; type: functional
[5] = tested on: Staphylococcus epidermidis; assay: Antibacterial activity against methicillin, vancomycin-sensitive and trimethoprim-resistant Staphylococcus epidermidis BAS000635 harboring dfrC and dfrA genes; type: functional
[6] = Inhibition of trimethoprim-sensitive Staphylococcus aureus DfrB type dihydrofolate reductase
Dihydrofolate reductase = Dihydrofolate reductase (Staphylococcus aureus, UniProt P0A017, F99Y); assay: Inhibition of trimethoprim-resistant Staphylococcus aureus DfrB type dihydrofolate reductase F98Y mutant
[7] = Inhibition of trimethoprim-resistant Staphylococcus aureus Type S1 dihydrofolate reductase
Mycobacterium avium [8] = assay: Antibacterial activity against Mycobacterium avium assessed as inhibition of bacterial growth at <=4 ug/ml; type: functional; set-up: scale not given: the % may be the effect or the level left
Enterococcus faecalis [9] = assay: Antibacterial activity against Enterococcus faecalis; type: functional
Enterococcus faecalis [10] = assay: Antibacterial activity against Enterococcus faecalis in presence of 50 ug/ml thymidine; type: functional
Enterococcus faecalis [11] = assay: Antibacterial activity against Enterococcus faecalis in presence of 250 ug/ml thymidine; type: functional
Enterococcus faecium [12] = assay: Antibacterial activity against Enterococcus faecium; type: functional
Enterococcus faecium [13] = assay: Antibacterial activity against Enterococcus faecium in presence of 50 ug/ml thymidine; type: functional
Enterococcus faecium [14] = assay: Antibacterial activity against Enterococcus faecium in presence of 250 ug/ml thymidine; type: functional
Streptococcus pneumoniae [15] = assay: Antibacterial activity against Streptococcus pneumoniae
Streptococcus pneumoniae [16] = assay: Antibacterial activity against Streptococcus pneumoniae in presence of 50 ug/ml thymidine; type: functional
Streptococcus pneumoniae [17] = assay: Antibacterial activity against Streptococcus pneumoniae in presence of 250 ug/ml thymidine; type: functional
Haemophilus influenzae [18] = assay: Antibacterial activity against Haemophilus influenzae; type: functional
Haemophilus influenzae [19] = assay: Antibacterial activity against Haemophilus influenzae in presence of 50 ug/ml thymidine
Haemophilus influenzae [20] = assay: Antibacterial activity against Haemophilus influenzae in presence of 250 ug/ml thymidine; type: functional
Enterococcus faecalis [21] = assay: Antibacterial activity against vancomycin-sensitive folA, dfrF-negative Enterococcus faecalis harboring A5T, K88N, F102Y mutation in dfrE gene; type: functional
Enterococcus faecalis [22] = assay: Antibacterial activity against vancomycin-sensitive dfrE, dfrF-positive and folA-negative Enterococcus faecalis; type: functional
Enterococcus faecium [23] = assay: Antibacterial activity against vancomycin-sensitive dfrE, dfrF-negative and folA-positive Enterococcus faecium; type: functional
Enterococcus faecium [24] = assay: Antibacterial activity against vancomycin-resistant dfrE, dfrF-negative and folA-positive Enterococcus faecium; type: functional
Staphylococcus aureus [25] = assay: Antibacterial activity against methicillin-sensitive dfrB-positive abd dfrA, dfrG-negative Staphylococcus aureus; type: functional
Staphylococcus aureus [26] = assay: Antibacterial activity against methicillin-resistant dfrA within SCCmec-N1, dfrA and dfrG -negative Staphylococcus aureus harboring F98Y mutation in dfrB gene; type: functional
Staphylococcus aureus [27] = assay: Antibacterial activity against methicillin-resistant dfrB, dfrA-positive and dfrA within SCCmec-N1, dfrG-negative Staphylococcus aureus; type: functional
Staphylococcus aureus [28] = assay: Antibacterial activity against methicillin-resistant dfrB, dfrG-positive and dfrA-negative Staphylococcus aureus; type: functional
[29] = tested on: Staphylococcus epidermidis; assay: Antibacterial activity against methicillin-sensitive dfrC-positive and dfrA, dfrD-negative Staphylococcus epidermidis; type: functional
[30] = tested on: Staphylococcus epidermidis; assay: Antibacterial activity against methicillin-sensitive dfrA, dfrD-negative Staphylococcus epidermidis harboring F98Y mutation in dfrC gene; type: functional
[31] = tested on: Staphylococcus epidermidis; assay: Antibacterial activity against methicillin-sensitive dfrA-positive and dfrD-negative Staphylococcus epidermidis harboring F98Y mutation in dfrC gene; type: functional
[32] = tested on: Staphylococcus epidermidis; assay: Antibacterial activity against methicillin-sensitive dfrC, dfrA-positive and dfrD-negative Staphylococcus epidermidis; type: functional
[33] = tested on: Staphylococcus epidermidis; assay: Antibacterial activity against methicillin-resistant dfrC, dfrA-positive and dfrA within SCCmec-N1, dfrD-negative Staphylococcus epidermidis; type: functional
HeLa = assay: Cytotoxicity against human HeLa cells; type: cell-based
Mus musculus [34] = assay: Hepatotoxicity in NMRI mouse assessed as increase in liver weight at 400 mg/kg administered through oral gavage for 5 days; type: toxicity, organism-based; set-up: dose 400 mg/kg, route oral; conditions: in vivo, 120 h
Mus musculus [35] = assay: Hepatotoxicity in NMRI mouse assessed as increase in liver weight at 400 mg/kg administered through oral gavage for 10 days; type: toxicity, organism-based; set-up: dose 400 mg/kg, route oral; conditions: in vivo, 240 h
[36] = Oral bioavailability in NMRI mouse; type: ADME, organism-based; conditions: in vivo
[37] = Cmax in NMRI mouse blood at 25 mg/kg administered through oral gavage measured after 7 hrs; type: ADME, organism-based; set-up: dose 25 mg/kg, route oral
[38] = Tmax in NMRI mouse blood at 25 mg/kg administered through oral gavage measured after 7 hrs; type: ADME, organism-based; set-up: dose 25 mg/kg, route oral
[39] = AUC (0 to t) in NMRI mouse blood at 25 mg/kg administered through oral gavage after 7 hrs; type: ADME, organism-based; set-up: time < 7 hr, dose 25 mg/kg, route oral
Mus musculus [40] = assay: Hepatotoxicity in NMRI mouse assessed as inflammatory infiltrates at 400 mg/kg administered through oral gavage for 5 days; type: toxicity, organism-based; set-up: dose 400 mg/kg, route oral; conditions: in vivo, 120 h
Mus musculus [41] = assay: Hepatotoxicity in NMRI mouse assessed as inflammatory infiltrates at 400 mg/kg administered through oral gavage for 10 days; type: toxicity, organism-based; set-up: dose 400 mg/kg, route oral; conditions: in vivo, 240 h
Mus musculus [42] = assay: Hepatotoxicity in NMRI mouse assessed as single-cell necrosis at 400 mg/kg administered through oral gavage for 5 days; type: toxicity, organism-based; set-up: dose 400 mg/kg, route oral; conditions: in vivo, 120 h
Mus musculus [43] = assay: Hepatotoxicity in NMRI mouse assessed as single-cell necrosis at 400 mg/kg administered through oral gavage for 10 days; type: toxicity, organism-based; set-up: dose 400 mg/kg, route oral; conditions: in vivo, 240 h
Mus musculus [44] = assay: Hepatotoxicity in NMRI mouse assessed as increase in mitosis at 400 mg/kg administered through oral gavage for 10 days; type: toxicity, organism-based; set-up: dose 400 mg/kg, route oral; conditions: in vivo, 240 h
Mus musculus [45] = assay: Hepatotoxicity in NMRI mouse assessed as increase in mitosis at 400 mg/kg administered through oral gavage for 5 days; type: toxicity, organism-based; set-up: dose 400 mg/kg, route oral; conditions: in vivo, 120 h
Staphylococcus aureus [46] = assay: Antibacterial activity against trimethoprim-sensitive Staphylococcus aureus ATCC 29213; type: functional
Staphylococcus aureus [47] = assay: Antibacterial activity against trimethoprim-sensitive Staphylococcus aureus ATCC 29213 infected in NMRI mouse model of septicemia assessed as complete protection from infections at 3.1 mg/kg, iv; type: functional, organism-based; set-up: dose 3.1 mg/kg
Staphylococcus aureus [48] = assay: Antibacterial activity against trimethoprim-sensitive Staphylococcus aureus ATCC 29213 infected in NMRI mouse model of septicemia assessed as succumbed to infections at 1.6 mg/kg, iv; type: functional, organism-based; set-up: dose 1.6 mg/kg
Staphylococcus aureus [49] = assay: Antibacterial activity against trimethoprim-sensitive Staphylococcus aureus ATCC 29213 infected in NMRI mouse model of septicemia; type: functional
Staphylococcus aureus [50] = assay: Antibacterial activity against trimethoprim-resistant Staphylococcus aureus BAS003908; type: functional
Staphylococcus aureus [51] = assay: Antibacterial activity against trimethoprim-resistant Staphylococcus aureus BAS003908 infected in NMRI mouse model of septicemia; type: functional
Mus musculus [52] = assay: Toxicity in po dosed NMRI mouse; type: organism-based; conditions: in vivo
Mycobacterium avium [53] = assay: Antibacterial activity against Mycobacterium avium; type: functional

SMILES: COc1cc(Cc2cnc(N)nc2N)cc(/C=C/C(=O)N2N=Cc3ccccc3[C@H]2c2cnc(N3CCOCC3)nc2)c1OC
- MIC (Staphylococcus aureus [1]): 4 µg/mL (≈ 6.58 µM)
- MIC (Staphylococcus aureus [2]): 2 µg/mL (≈ 3.29 µM)
- MIC (Staphylococcus aureus [3]): > 8 µg/mL
- MIC [4]: 1 µg/mL (≈ 1.65 µM)
- MIC [5]: > 8 µg/mL
- pIC50 [6]: 7.33
- pIC50 (Dihydrofolate reductase): 5.24
- pIC50 [7]: 5.59

SMILES: COc1cc(Cc2cnc(N)nc2N)cc(/C=C/C(=O)N2N=Cc3ccccc3C2c2cnc(N3CCOCC3)nc2)c1OC (stereo not given)
- Activity (Mycobacterium avium [8]): 77%
- MIC (Enterococcus faecalis [9]): 0.5 µg/mL (≈ 0.823 µM)
- MIC (Enterococcus faecalis [10]): ≤ 0.25 µg/mL
- MIC (Enterococcus faecalis [11]): 2 µg/mL
- MIC (Enterococcus faecium [12]): 2 µg/mL (≈ 3.29 µM)
- MIC (Enterococcus faecium [13]): ≥ 128 µg/mL
- MIC (Enterococcus faecium [14]): > 128 µg/mL
- MIC (Streptococcus pneumoniae [15]): ≥ 128 µg/mL
- MIC (Streptococcus pneumoniae [16]): ≥ 128 µg/mL
- MIC (Streptococcus pneumoniae [17]): ≥ 128 µg/mL
- MIC (Haemophilus influenzae [18]): > 128 µg/mL
- MIC (Haemophilus influenzae [19]): ≥ 128 µg/mL
- MIC (Haemophilus influenzae [20]): ≥ 128 µg/mL
- MIC (Enterococcus faecalis [21]): 1 µg/mL (≈ 1.65 µM)
- MIC (Enterococcus faecalis [22]): > 128 µg/mL
- MIC (Enterococcus faecium [23]): ≤ 0.25 µg/mL
- MIC (Enterococcus faecium [24]): 2 µg/mL (≈ 3.29 µM)
- MIC (Staphylococcus aureus [25]): 0.5 µg/mL (≈ 0.823 µM)
- MIC (Staphylococcus aureus [26]): 1 µg/mL (≈ 1.65 µM)
- MIC (Staphylococcus aureus [27]): 1 µg/mL (≈ 1.65 µM)
- MIC (Staphylococcus aureus [27]; Staphylococcus aureus, read-out: MIC): 0.5 µg/mL (≈ 0.823 µM)
- MIC (Staphylococcus aureus [28]): 64 µg/mL (≈ 105 µM)
- MIC [29]: < 0.25 µg/mL
- MIC [30]: 1 µg/mL (≈ 1.65 µM)
- MIC [31]: 1 µg/mL (≈ 1.65 µM)
- MIC [32]: 1 µg/mL (≈ 1.65 µM)
- MIC [33]: 1 µg/mL (≈ 1.65 µM)
- MIC (Staphylococcus aureus [1]): 1 µg/mL (≈ 1.65 µM)
- MIC (Staphylococcus aureus [2]): 0.5 µg/mL (≈ 0.823 µM)
- MIC (Staphylococcus aureus [3]): 2 µg/mL (≈ 3.29 µM)
- MIC [4]: 0.25 µg/mL (≈ 0.411 µM)
- MIC [5]: 2 µg/mL (≈ 3.29 µM)
- pIC50 [6]: 7.91
- pIC50 (Dihydrofolate reductase): 6.91
- pIC50 [7]: 6.81
- pIC50 (HeLa): 4.92
- Activity (Mus musculus [34]): < 10%
- Activity (Mus musculus [35]): < 10%
- bioavailability [36]: 29%
- Cmax [37]: 990 ng/mL
- Tmax [38]: 6 h
- AUC(0-t) at 7 h [39]: 5590 ng·h/mL
- Activity (Mus musculus [40]): < 10%
- Activity (Mus musculus [41]): < 10%
- Activity (Mus musculus [42]): < 10%
- Activity (Mus musculus [43]): < 10%
- Activity (Mus musculus [44]): < 10%
- Activity (Mus musculus [45]): < 10%
- MIC (Staphylococcus aureus [46]): 0.5 µg/mL (≈ 0.823 µM)
- Activity (Staphylococcus aureus [47]): Active
- Activity (Staphylococcus aureus [48]): inactive
- ED50 (Staphylococcus aureus [49]): 1.6 mg/kg
- MIC (Staphylococcus aureus [50]): 1 µg/mL (≈ 1.65 µM)
- ED50 (Staphylococcus aureus [51]): 1.6 mg/kg
- Activity (Mus musculus [52]): 400 mg/kg

SMILES: Nc1ccc(S(=O)(=O)c2ccc(N)cc2)cc1 [DAPSONE]
- MIC (Mycobacterium avium [53]): < 16 µg/mL

SMILES: COc1ncc([C@@H]2c3ccccc3C=NN2C(=O)/C=C/c2cc(Cc3cnc(N)nc3N)cc(OC)c2OC)cn1
- MIC (Staphylococcus aureus [1]): 2 µg/mL (≈ 3.62 µM)
- MIC (Staphylococcus aureus [2]): 1 µg/mL (≈ 1.81 µM)
- MIC (Staphylococcus aureus [3]): > 8 µg/mL
- MIC [4]: 0.5 µg/mL (≈ 0.905 µM)
- MIC [5]: > 8 µg/mL
- pIC50 [6]: 7.90
- pIC50 (Dihydrofolate reductase): 5.94
- pIC50 [7]: 5.88

SMILES: COc1ncc([C@H]2c3ccccc3C=NN2C(=O)/C=C/c2cc(Cc3cnc(N)nc3N)cc(OC)c2OC)cn1
- MIC (Staphylococcus aureus [1]): 0.25 µg/mL (≈ 0.452 µM)
- MIC (Staphylococcus aureus [2]): 0.125 µg/mL (≈ 0.226 µM)
- MIC (Staphylococcus aureus [3]): 2 µg/mL (≈ 3.62 µM)
- MIC [4]: 0.06 µg/mL (≈ 0.109 µM)
- MIC [5]: 1 µg/mL (≈ 1.81 µM)
- pIC50 [6]: 8.41
- pIC50 (Dihydrofolate reductase): 7.87
- pIC50 [7]: 7.01
